PubChem BioAssay (NCI)
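Protocol summary: plate cells (96-well), add compound at 5 concentrations, incubate 48 h, interpolate endpoints linearly. Abbreviation: GI50, concentration required for 50% inhibition of growth. TGI denotes the concentration required for complete inhibition of growth.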

Key:
Assay in all cases: DTP human tumour cell line panel, 48 h
[1] = tested on: HCT-15 colon
[2] = tested on: K-562 leukemia
[3] = tested on: DU-145 prostate
[4] = tested on: M14 melanoma
[5] = tested on: 786-0 renal
[6] = tested on: CAKI-1 renal
[7] = tested on: MOLT-4 leukemia
[8] = tested on: UO-31 renal
[9] = tested on: SNB-19 CNS
[10] = tested on: HS 578T breast
[11] = tested on: ACHN renal
[12] = tested on: TK-10 renal
[13] = tested on: NCI-H460 lung
[14] = tested on: T-47D breast
[15] = tested on: NCI/ADR-RES ovarian
[16] = tested on: SF-268 CNS
[17] = tested on: OVCAR-5 ovarian
[18] = tested on: MDA-MB-231 breast
[19] = tested on: OVCAR-8 ovarian
[20] = tested on: HT29 colon
[21] = tested on: HOP-62 NSCLC
[22] = tested on: SK-OV-3 ovarian
[23] = tested on: HOP-92 NSCLC
[24] = tested on: SW-620 colon
[25] = tested on: NCI-H23 lung
[26] = tested on: RPMI-8226 leukemia
[27] = tested on: MDA-MB-435
[28] = tested on: IGROV1 ovarian
[29] = tested on: HCC-2998 colon
[30] = tested on: SNB-75 CNS
[31] = tested on: OVCAR-3 ovarian
[32] = tested on: SK-MEL-2 melanoma
[33] = tested on: OVCAR-4 ovarian
[34] = tested on: PC-3 prostate
[35] = tested on: RXF 393 renal
[36] = tested on: KM12 colon
[37] = tested on: MALME-3M melanoma
[38] = tested on: SF-295 CNS
[39] = tested on: COLO 205 colon
[40] = tested on: UACC-257 melanoma
[41] = tested on: HCT-116 colon
[42] = tested on: MCF7 breast

Molecule `CNc1ccc(C(=O)CC(O)CCC(C)C2OC(=O)CC(O)CC(=O)CC(O)CC(O)CC(O)CC(O)CC3(O)CC(O)C(C(=O)NCCN(C)C)C(CC(OC4OC(C)C(O)C(NC(=O)CN5CCN(CCO)CC5)C4O)/C=C/C=C/C=C/C=C\C=C/C=C/C=C/C2C)O3)cc1` (configuration not stated) has a GI50 [1] of 2.92 µM, a TGI [1] of over 50 µM and a GI50 [2] of 0.163 µM. For the same molecule, the TGI [2] was 1.35 µM, the GI50 [3] was 0.161 µM and the TGI [3] was 0.61 µM. It also gave a GI50 [4] of 0.494 µM, a TGI [4] of 1.51 µM and a GI50 [5] of 0.197 µM. The TGI [5] was over 50 µM, the GI50 [6] was 0.192 µM and the TGI [6] was over 18.7 µM. The GI50 [7] was 0.424 µM, the TGI [7] was over 21.4 µM and the GI50 [8] was 2.17 µM. For the same molecule, the TGI [8] was over 50 µM, the GI50 [9] was 1.62 µM and the TGI [9] was over 50 µM. It also gave a GI50 [10] of over 50 µM, a TGI [10] of over 50 µM and a GI50 [11] of 1.12 µM. For the same molecule, the TGI [11] was 2.44 µM, the GI50 [12] was 0.143 µM and the GI50 [13] was 0.242 µM. The TGI [13] was 1.74 µM, the GI50 [14] was 1.08 µM and the TGI [14] was over 50 µM. It also gave a GI50 [15] of 2.07 µM, a TGI [15] of 14.2 µM and a GI50 [16] of 0.193 µM. It also gave a TGI [16] of over 50 µM, a GI50 [17] of 3.59 µM and a TGI [17] of over 30.6 µM. It also gave a GI50 [18] of 0.832 µM, a TGI [18] of 2.91 µM and a GI50 [19] of 2.5 µM. For the same molecule, the TGI [19] was over 50 µM, the GI50 [20] was 0.931 µM and the TGI [20] was over 11.6 µM. For the same molecule, the GI50 [21] was 1.17 µM, the TGI [21] was 6.21 µM and the GI50 [22] was 2.38 µM. It also gave a TGI [22] of over 50 µM, a TGI [23] of over 50 µM and a GI50 [24] of 0.728 µM. For the same molecule, the TGI [24] was over 50 µM, the GI50 [25] was 14.8 µM and the TGI [25] was 47.3 µM. For the same molecule, the GI50 [26] was over 50 µM, the TGI [26] was over 50 µM and the GI50 [27] was 0.692 µM. For the same molecule, the TGI [27] was 1.91 µM, the GI50 [28] was over 50 µM and the TGI [28] was over 50 µM. For the same molecule, the GI50 [29] was 1.91 µM, the TGI [29] was 4.26 µM and the GI50 [30] was over 22.3 µM. It also gave a TGI [30] of over 50 µM, a GI50 [31] of 0.768 µM and a TGI [31] of 3.03 µM. The GI50 [32] was 19.9 µM, the TGI [32] was over 50 µM and the GI50 [33] was 1.65 µM. For the same molecule, the TGI [33] was over 17.4 µM, the GI50 [34] was 0.296 µM and the TGI [34] was over 50 µM. The GI50 [35] was over 50 µM, the TGI [35] was over 50 µM and the GI50 [36] was 0.165 µM. For the same molecule, the TGI [36] was 0.49 µM, the GI50 [37] was 0.0966 µM and the TGI [37] was 0.3 µM. For the same molecule, the GI50 [38] was 0.706 µM, the TGI [38] was 1.64 µM and the GI50 [39] was 0.508 µM. For the same molecule, the TGI [39] was 1.81 µM, the GI50 [40] was 0.935 µM and the TGI [40] was 2.79 µM. The GI50 [41] was 0.546 µM, the TGI [41] was 2.13 µM and the GI50 [42] was 0.219 µM. It also gave a TGI [42] of over 50 µM.
